Measured values: patent US4335111A, “Compounds associating peptidyl of aminoacyl residues to lipophilic groups and pharmaceutical compositions containing said new compounds” (priority 1978, dated 1982)

What was measured:
Klebsiella pneumoniae = assay: Anti-infectious activity: protection of mice inoculated with Klebsiella pneumoniae; type: in vivo; settings: for Protection (%) / Survival at day 10 of infection No/total: 100 μg i.v. at day -1; for Protection (%): i.m. infection with 1.5 × 10^4 viable organisms, difference between percentages of survivors in treated and control group; for Survival at day 10 of infection No/total: infection by the intramuscular route with 1.5 × 10^4 viable organisms; for % protection: difference of percentages of survivors, treated vs control group
adrenalectomized mice = settings: 100 μg injected intravenously into five adrenalectomized mice
rabbits = settings: doses as high as 5 mg/kg of body weight
[1] = concentration as high as 100 μg/ml
[2] = 100 μg i.v. 24 H before infection, infection 3.10^4 K.p. i.m., 24 mice at day 0
[3] = 100 μg i.v. 24 H before infection, infection 4.10^3 K.p. i.v., 24 mice at day 0 (8 for glyceryl-mycolate)

Row | Compound | Protection (%) (Klebsiella pneumoniae) | Survival at day 10 of infection No/total (Klebsiella pneumoniae) | further results
1 | 1-O(L-Ala-D-isoAsn-L-Ala)-glycerol-3-mycolate | 37% | 16/32 | 
2 | 1-O(L-alanyl-D-isoglutaminyl-L-alanyl)glycerol-3-mycolate | 70% | 31/40 | death of adrenalectomized mice (adrenalectomized mice): did not cause death of any of them; hyperthermizing (pyrogenic) effect (rabbits): no hyperthermizing effect; Limulus test result [1]: negative; Number of mice day 3 (Klebsiella pneumoniae; [2]): 23; Number of mice day 5 (Klebsiella pneumoniae; [2]): 20; Number of mice day 10 (Klebsiella pneumoniae; [2]): 17; % protection (Klebsiella pneumoniae; 100 μg i.v. 24 H before infection, infection 3.10^4 K.p. i.m.): 37%; Number of mice day 3 (Klebsiella pneumoniae; [3]): 21; Number of mice day 5 (Klebsiella pneumoniae; [3]): 21; Number of mice day 10 (Klebsiella pneumoniae; [3]): 21; % protection (Klebsiella pneumoniae; 100 μg i.v. 24 H before infection, infection 4.10^3 K.p. i.v.): 79%
3 | 1-O-(D-isoGln-L-Ala)-glycerol-3-mycolate hydrochloride | 47% | 28/49 | 
4 | 1-O-(L-Ala-D-Gln-L-Ala)-glycerol-3-mycolate | 12% | 8/32 | 
5 | 1-O-(L-Ala-D-isoGln-L-Ala)-glycerol-3-corynomycolate | 28% | 11/32 | 
6 | 1-O-(L-alanyl)-glycerol-3-mycolate hydrochloride [1-O--(L--Ala)--glycerol-3-mycolate] | 35% | 16/40 | 
7 | 1-O-(L-alanyl-L-isoglutaminyl-L-alanyl)-glycerol-3-mycolate hydrochloride | 12% | 7/32 | 
8 | 1-O-(β-Ala-D-isoGln-L-Ala)-glycerol-3-mycolate hydrochloride | 25% | 12/32 | 
9 | CCCCCCCCCCCCCCCCCC(=O)OCC(COC(=O)[C@H](C)NC(=O)CC[C@@H](NC(=O)[C@H](C)N)C(N)=O)OC(=O)CCCCCCCCCCCCCCCCC.Cl (stereo partly drawn) [1-O-(L-Ala-D-isoGln-L-Ala)-glycerol-2,3-distearate hydrochloride] | 12% | 5/24 | 
10 | CCCCCCCCCCCCCCCCCC(=O)OCC(O)COC(=O)[C@H](C)NC(=O)CC[C@@H](NC(=O)[C@H](C)N)C(N)=O.Cl (stereo partly drawn) [1-O-(L-Ala-D-isoGln-L-Ala)-glycerol-3-stearate hydrochloride] | 8% | 4/24 | 
11 | CCCCCCCCCCOC(=O)C(C)NC(=O)CCC(NC(=O)C(C)N)C(N)=O.Cl [DP--L--Ala--decyl ester, L-Ala-D-isoGln-L-Ala-n-decylester hydrochloride] | 0% | 1/24 | 
12 | CCCCCCCCCCCCCCCOC(=O)[C@H](C)NC(=O)CC[C@@H](NC(=O)[C@H](C)N)C(N)=O.Cl [DP--L--Ala--pentadecylester, L-Ala-D-isoGln-L-Alan-n-pentadecylester hydrochloride] | 4% | 4/32 | 
13 | glycerol-3-mycolate [Glyceryl-mycolate, reference compound] |  |  | Number of mice day 3 (Klebsiella pneumoniae; mouse, in vivo, iv): 1; Number of mice day 5 (Klebsiella pneumoniae; mouse, in vivo, iv): 1; Number of mice day 10 (Klebsiella pneumoniae; mouse, in vivo, iv): 1; anti-infectious activity (in words) (Klebsiella pneumoniae; mouse, in vivo, iv): devoid of significant activity
